Data reported in patent US20230226198A1, “Artemisinin Derivatives” (DA ZEN THERANOSTICS, INC., priority 2019, published 2023).

Key:
Assay type in all cases: cell-based
22Rv1 cells = test: MTT cell viability / IC50 assay, 22Rv1; settings: Homo sapiens, 22Rv1, 48 h
Method: (§1) Cell culture: In the following examples, unless otherwise specified, all cell lines are purchased from American Type Culture Collection and cultured in American Type Culture Collection (ATCC)-recommended media, with fetal bovine serum (FBS) to a final concentration of 10% and 1× penicillin/streptomycin at 37° C. with 5% CO2 in a cell culture incubator, unless otherwise specified. Unless otherwise specified, culture is 2D. Where culture is 3D, low attachment plates are used, with the same media. C4-2B (ATCC® CRL-3315™, human prostate cancer cells of epithelial morphology) parental cell line and drug-resistant cells derived therefrom) are cultured in RPMI-1640 with 10% FBS. MDVR cells (an Enzalutamide-resistant variety of C4-2B prostate cancer cells formed as described below) are cultured as indicated for the parental C4-2B cells. Caki-1 cells (human clear cell renal cell carcinoma cells) are cultured in ATCC-formulated McCoy's 5a Medium Modified (ATCC Catalog No. 30-2007) with 10% FBS. […]
(§2) Each of the cell lines is treated either with a THAD (e.g. DZ-DHA-ether, MI-148-bis-DHA), or for comparison, with the DHA mono-ester “DZ-DHA”; alternatively/additionally, DZ1 and/or unconjugated DHA may serve as comparants. […] The absorbance density of the supernatant is read on a 96-well microplate reader at wavelength 595 nm. […]

DU145 cells = test: MTT cell viability / IC50 assay, DU145; settings: Homo sapiens, DU-145; DU145, 48 h
Method: as §1, §2

C4-2B cells = test: MTT cell viability / IC50 assay, C4-2B; settings: Homo sapiens, 48 h
Method: as §1, §2

H358 cells = test: MTT cell viability / IC50 assay, H358; settings: Homo sapiens, NCI-H358, 48 h
Method: as §1, §2

H446 cells = test: MTT cell viability / IC50 assay, H446; settings: Homo sapiens, NCI-H446, 48 h
Method: as §1, §2

BxPC3 cells = test: MTT cell viability / IC50 assay, BxPC3; settings: Homo sapiens, BXPC-3; BxPC3, 48 h
Method: as §1, §2

Question: Which results are given for `C[C@@H]1CC[C@H]2[C@@H](C)C(OC(=O)CCCCCN3/C(=C/C=C4\CCCC(/C=C/C5=[N+](CCCCS(=O)(=O)[O-])c6ccccc6C5(C)C)=C4Cl)C(C)(C)c4ccccc43)O[C@@H]3OC4(C)CC[C@@H]1[C@]32OO4` (stereo in doubt) [DZ3a]?
Answer: IC50 (22Rv1 cells): 0.9 µM; IC50 (DU145 cells): 8.1 µM; IC50 (C4-2B cells): 5 µM; IC50 (H358 cells): 2.6 µM; IC50 (H446 cells): 12.6 µM; IC50 (BxPC3 cells): 9.8 µM

Question: Which results are given for `C[C@H]1[C@@H](O)O[C@@H]2O[C@@]3(C)CC[C@H]4[C@H](C)CC[C@@H]1[C@@]24OO3` [DHA, dihydroartemisinin]?
Answer: IC50 (22Rv1 cells): 9.4 µM; IC50 (DU145 cells): 295 µM; IC50 (C4-2B cells): 188 µM; IC50 (H358 cells): 7.32 µM; IC50 (H446 cells): 287 µM; IC50 (BxPC3 cells): 50.7 µM
